Assay results taken from patent publication US10294202B2, “Pyrrolidinones as herbicides” (FMC Corporation, priority 2013, dated 2019).

Legend:
giant foxtail = assay: Test A pre-/postemergence herbicide test; format: in vivo, Setaria faberii; conditions: for Plant response rating, Foxtail, Giant: 0 to 100 scale
Procedure, shortened: (§1)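 Greenhouse pot test with pre- and postemergence application of surfactant-containing solvent formulations. Postemergence plants were 2–10 cm, one- to two-leaf stage. Response scored visually after ~10 days, 0 (no effect) to 100 (complete control).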

pigweed [1] = assay: Test A pre-/postemergence herbicide test; format: in vivo, Amaranthus retroflexus; conditions: for Plant response rating, Pigweed: 0 to 100 scale
Procedure, shortened: as §1

corn = assay: Test A pre-/postemergence herbicide test; format: in vivo, Zea mays; conditions: Postemergence
Procedure, shortened: as §1

rice = assay: Test B flooded paddy test; format: in vivo, Oryza sativa; conditions: 500 g ai/ha, Flood; scale of 0 to 100 where 0 is no effect and 100 is complete control
Procedure, shortened: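 Treatment was made at the 2-leaf stage by dosing the standing floodwater, kept 3 cm above soil level for the whole test. Greenhouse exposure lasted 13 to 15 days. Response is a visual percent rating relative to controls, where a dash indicates no test result.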

ryegrass, Italian = assay: Test C pre-/postemergence herbicide test; format: in vivo, Lolium multiflorum
Procedure, shortened: (§2)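 Greenhouse pots; formulation = non-phytotoxic solvent mix + surfactant. PRE onto seeds in loam:sand; POST at 1–4 leaves (2–18 cm) in peat moss/vermiculite medium. Read-out: visual % control vs untreated, day 13–15.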

galium = assay: Test C pre-/postemergence herbicide test; format: in vivo, Galium aparine; conditions: Preemergence
Procedure, shortened: as §2

johnsongrass = assay: Test C pre-/postemergence herbicide test; format: in vivo, Sorghum halepense
Procedure, shortened: as §2

nutsedge, yellow = assay: Test C pre-/postemergence herbicide test; format: in vivo, Cyperus esculentus
Procedure, shortened: as §2

pigweed [2] = assay: Test C pre-/postemergence herbicide test; format: in vivo, Amaranthus retroflexus
Procedure, shortened: as §2

ragweed = assay: Test C pre-/postemergence herbicide test; format: in vivo, Ambrosia elatior
Procedure, shortened: as §2

waterhemp = assay: Test C pre-/postemergence herbicide test; format: in vivo, Amaranthus rudis
Procedure, shortened: as §2

[3] = 125 g ai/ha, visual rating, 0 no effect, 100 complete control, approximately 10 days, preemergence
[4] = Postemergence, 125 g ai/ha, 0 no effect, 100 complete control
[5] = Postemergence, 31 g ai/ha, scale 0 to 100 (0 no effect, 100 complete control)
[6] = Postemergence, 62 g ai/ha, scale 0 (no effect) to 100 (complete control)
[7] = Postemergence, 125 g ai/ha, scale 0 to 100 (0 no effect, 100 complete control)
[8] = Postemergence, 250 g ai/ha, scale 0 to 100 (0 no effect, 100 complete control)
[9] = Preemergence, 31 g ai/ha, scale 0 to 100, 0 is no effect and 100 is complete control
[10] = Preemergence, 62 g ai/ha, scale 0 to 100
[11] = Preemergence, 125 g ai/ha, scale 0 to 100 (0 no effect, 100 complete control)

## O=C1NCC(c2ccc(F)cc2)C1C(=O)Nc1ccc(F)c(F)c1F (racemic) [Compound 120]
Giant foxtail; [3]
  Plant response rating, Foxtail, Giant: 90
Giant foxtail; [4]
  Plant response rating, Foxtail, Giant: 80
Giant foxtail; Postemergence, 500 g ai/ha
  Foxtail, Giant plant response rating (0 to 100 scale, 0 is no effect, 100 is complete control): 90
Giant foxtail; preemergence, 500 g ai/ha
  Plant response rating, Foxtail, Giant: 90
Pigweed [1]; [3]
  Plant response rating, Pigweed: 30
Pigweed [1]; [4]
  Plant response rating, Pigweed: 20
Pigweed [1]; Postemergence, 500 g ai/ha
  Pigweed plant response rating (0 to 100 scale, 0 is no effect, 100 is complete control): 50
Pigweed [1]; preemergence, 500 g ai/ha
  Plant response rating, Pigweed: 40
corn; 125 g ai/ha, 0 to 100 scale, 0 no effect, 100 complete control
  Plant response rating, Corn: 20
corn; 500 g ai/ha, 0 to 100 scale (0 no effect, 100 complete control)
  Plant response rating, Corn: 80
rice
  Plant response rating, Rice: 20
ryegrass, Italian; [5]
  Plant response rating, Ryegrass, Italian: 0
ryegrass, Italian; [6]
  Plant response rating, Ryegrass, Italian: 0
ryegrass, Italian; [7]
  Plant response rating, Ryegrass, Italian: 0
ryegrass, Italian; [8]
  Plant response rating, Ryegrass, Italian: 10
ryegrass, Italian; [9]
  Ryegrass, Italian plant response rating: 10
ryegrass, Italian; [10]
  Plant response rating, Ryegrass, Italian: 5
ryegrass, Italian; [11]
  Plant response rating, Ryegrass, Italian: 10
ryegrass, Italian; Preemergence, 250 g ai/ha
  Plant response rating (scale of 0 to 100), Ryegrass, Italian: 30
galium; 31 g ai/ha, scale 0 to 100, 0 is no effect and 100 is complete control
  Galium plant response rating: 5
galium; 62 g ai/ha, scale 0 to 100
  Plant response rating, Galium: 95
galium; 125 g ai/ha, scale 0 to 100 (0 no effect, 100 complete control)
  Plant response rating, Galium: 50
galium; 250 g ai/ha
  Plant response rating (scale of 0 to 100), Galium: 90
johnsongrass; [5]
  Plant response rating, Johnsongrass: 0
johnsongrass; [6]
  Plant response rating, Johnsongrass: 0
johnsongrass; [7]
  Plant response rating, Johnsongrass: 0
johnsongrass; [8]
  Plant response rating, Johnsongrass: 0
johnsongrass; [9]
  Johnsongrass plant response rating: 0
johnsongrass; [10]
  Plant response rating, Johnsongrass: 0
johnsongrass; [11]
  Plant response rating, Johnsongrass: 25
johnsongrass; Preemergence, 250 g ai/ha
  Plant response rating (scale of 0 to 100), Johnsongrass: 65
nutsedge, yellow; [5]
  Plant response rating, Nutsedge, Yellow: 0
nutsedge, yellow; [6]
  Plant response rating, Nutsedge, Yellow: 0
nutsedge, yellow; [7]
  Plant response rating, Nutsedge, Yellow: 0
nutsedge, yellow; [8]
  Plant response rating, Nutsedge, Yellow: 0
nutsedge, yellow; [9]
  Nutsedge, Yellow plant response rating: 0
nutsedge, yellow; [10]
  Plant response rating, Nutsedge, Yellow: 0
nutsedge, yellow; [11]
  Plant response rating, Nutsedge, Yellow: 0
nutsedge, yellow; Preemergence, 250 g ai/ha
  Plant response rating (scale of 0 to 100), Nutsedge, Yellow: 0
Pigweed [2]; [5]
  Plant response rating, Pigweed: 5
Pigweed [2]; [6]
  Plant response rating, Pigweed: 20
Pigweed [2]; [7]
  Plant response rating, Pigweed: 40
Pigweed [2]; [8]
  Plant response rating, Pigweed: 60
Pigweed [2]; [9]
  Pigweed plant response rating: 50
Pigweed [2]; [10]
  Plant response rating, Pigweed: 45
Pigweed [2]; [11]
  Plant response rating, Pigweed: 65
Pigweed [2]; Preemergence, 250 g ai/ha
  Plant response rating (scale of 0 to 100), Pigweed: 80
ragweed; [5]
  Plant response rating, Ragweed: 20
ragweed; [6]
  Plant response rating, Ragweed: 45
ragweed; [7]
  Plant response rating, Ragweed: 40
ragweed; [8]
  Plant response rating, Ragweed: 45
ragweed; [9]
  Ragweed plant response rating: 0
ragweed; [10]
  Plant response rating, Ragweed: 20
ragweed; [11]
  Plant response rating, Ragweed: 55
ragweed; Preemergence, 250 g ai/ha
  Plant response rating (scale of 0 to 100), Ragweed: 80
waterhemp; [5]
  Plant response rating, Waterhemp: 0
waterhemp; [6]
  Plant response rating, Waterhemp: 0
waterhemp; [7]
  Plant response rating, Waterhemp: 15
waterhemp; [8]
  Plant response rating, Waterhemp: 20
waterhemp; [9]
  Waterhemp plant response rating: 0
waterhemp; [10]
  Plant response rating, Waterhemp: 60
waterhemp; [11]
  Plant response rating, Waterhemp: 75
waterhemp; Preemergence, 250 g ai/ha
  Plant response rating (scale of 0 to 100), Waterhemp: 85
